The record followed here is patent US20090062240A1, “Pharmaceutical combinations containing an inhibitor of platelet aggregation and a fibrate” (Fournier Laboratories Ireland Limited, priority 2004, published 2009).

In this experiment the test system is rat platelet aggregation. Put plainly: Ex-vivo rat platelet aggregation induced by arachidonic acid after oral treatment (Born's method, PRP). The experiment is classed as in vivo. The following applies: for % aggregation upon addition of 1 mM arachidonic acid: rat PRP, mean, n = 8; for reduction in platelet aggregation (in words): 1 mM arachidonic acid. The method, then: A study was carried out to assess the effect of a combination of a fibrate (fenofibrate) and aspirin on platelet aggregation in this study, fenofibrate and aspirin were co-administered to rats by the oral route (p.o.) and the effects on arachidonic acid-induced platelet aggregation were observed.
40 male OFA-SD (IOPS Caw) rats (C.River, France), weighing in the target range of 300 to 350 g, were included in the study.
They were housed in a temperature (19.5-24.5° C.) and relative humidity (45-65%) controlled room with a 12-h light/dark cycle, with ad libitum access to filtered tap-water and standard pelleted laboratory chow (SAFE, France) throughout the study. Upon receipt at animal facilities, they were housed 4 per cage and at least a 5-day acclimatization period was observed. Animals were individually identified on the tail.
The animals of this study were split into 5 groups of 8 animals as follows:
Group 2: Fenofibrate, 300 mg/kg, p.o.×10 days
Group 3 Aspirin 3 mg/kg, p.o.×1 day
Group 4: Fenofibrate, 300 mg/kg, p.o×10 days+Aspirin 3 mg/kg, p.o.×1 day
Group 5: Aspirin 30 mg/kg, p.o.×1 day
At the end of the acclimatization period, rats were identified on the tail and divided into 10 boxes of 4 rats.
They were then weighed and treated orally once a day during ten consecutive days with the vehicle (1% methylcellulose aqueous solution) or the test substance fenofibrate. On the last day of treatment, the animals were also treated with aspirin as described above. Aspirin (acetyl saliclylic acid) was obtained from Sigma, France and fenofibrate was supplied by Laboratoires Fournier, France. Test substances and the vehicle were administered by p.o. route once a day, in a volume of 5 ml/kg adjusted to the animal weight measured every day before administration.
On the last day of treatment (day 10), 2 hours after the oral gavage, rats were anaesthetised with isoflurane, and blood samples were collected from the abdominal aorta into plastic tubes containing heparin.
PRP (platelet-rich plasma) was then produced by centrifuging the blood obtained at 250 g for 10 minutes using a GPKR centrifuge (Beckman, France). Then samples were then centrifuged again at 2000 g for 10 minutes to obtain the platelet-poor plasma (PPP).
After a platelet count, each PRP sample was adjusted to 6×10^8 platelets/mL with the needed volume of homologous PPP (using T540 Cell Counter, Beckman, France).
Platelet aggregation was recorded using Born's method (Born, Nature, 1962, 194, 927-929) with 0.3 mL of the platelet suspension in disposable glass cuvettes placed in the turbidometric aggregometer (Chrono-Dual 440 aggregometer, Beckman Coulter, France) and stirred at 1100 rev.min^−1 at 37° C.
Platelet aggregation was induced by Arachidonic acid [AA] for each PRP sample tested.
Results were reported as the aggregation amplitude measured in mm and expressed as percentage of maximal aggregation.
Statistical analysis consisted in a one-way analysis of variance followed by multiple comparisons versus the vehicle group (Dunnett's test) on % aggregation values. Where the equal variance test failed, a Kruskall-Wallis one-way analysis of variance on ranks was proposed. A difference is considered significant for p<0.05.

With `CC(C)OC(=O)C(C)(C)Oc1ccc(C(=O)c2ccc(Cl)cc2)cc1` [Fenofibrate, 2-[4-(4-chlorobenzoyl)phenoxy]-2-methyl-propanoic acid, 1-methylethyl ester], the “% aggregation upon addition of 1 mM arachidonic acid” value (Fenofibrate 300 mg/kg p.o. x 10 days, blood 2 h after last gavage) is given as 94.2%. In addition, the “reduction in platelet aggregation (in words)” value (fenofibrate alone (300 mg/kg)) is “no reduction in platelet aggregation”.
For `CC(=O)Oc1ccccc1C(=O)O` [Aspirin, Acetylsalicylic acid], the “% aggregation upon addition of 1 mM arachidonic acid” value stood at 85.0% (Aspirin 3 mg/kg p.o. x 1 day, blood 2 h after gavage) and 0.4% (Aspirin 30 mg/kg p.o. x 1 day, p < 0.05 vs Control). For the same compound, the “reduction in platelet aggregation (in words)” value (aspirin alone at 3 mg/kg) is “no reduction in platelet aggregation”.
